Measured values published in patent publication US7182965B2, “Soluble composition containing sporopollenin and the use thereof” (priority 2002, dated 2007).

System: skin
Test: Skin compatibility, 48 h occlusive patch test, modified Draize evaluation
Conditions: 1% in water, 48 hours under occlusion, 50 test subjects
Procedure: In this procedure, the GLP Guidelines and the recommendations of the COLIPA work group (Walker A. P. et al.: Test Guidelines for Assessment of Skin Compatibility of Cosmetic Finished Products in Man, Food and Chemical Toxicology 34, 1996, pages 651 to 660) were observed.
The model noxious substance sodium lauryl sulfate at a concentration of 1% in water served as the positive control. Water itself served as the negative control.
The evaluation of the test reaction was carried out after 48 and 72 hours in accordance with the modified Draize test.

## CCCCCCCCCCCCOS(=O)(=O)[O-].[Na+] [SDS, sodium lauryl sulfate]
  positive reaction, number of test subjects: 14 test subjects
